Experimental data published in patent US9526782B2, “Pharmaceutical compositions comprising inhibitors of zinc-ZIP8-MTF1 as active ingredients for preventing or treating a joint disease” (GWANGJU INSTITUTE OF SCIENCE AND TECHNOLOGY, priority 2014, dated 2016).

Legend:
[1] = system: matrix-degrading enzymes (MMP3, MMP9, MMP12, MMP13, and ADAMTS5); assay: mRNA (qRT-PCR) and protein (Western blotting) levels of matrix-degrading enzymes in chondrocytes; type: cell-based, mouse
Protocol: Adenoviruses expressing mouse Zip8 (Ad-Zip8) and Mtf1 (Ad-Mtf1) were purchased from Vector Biolabs. Mouse articular chondrocytes were cultured for 2 days, infected with empty virus (Ad-C), Ad-Zip8, or Ad-Mtf1 for 2 hours at the indicated multiplicity of infection (MOI), and cultured for 24 hours, followed by further analyses.
(§1) Total RNA was extracted from primary cultured chondrocytes using the TRI reagent (Molecular Research Center Inc.). For the isolation of RNA from knee joints, cartilage tissues were scraped with a blade to remove cartilage, and RNA was isolated using the TRI reagent and Purelink RNA mini kit (Ambion). The RNA was reverse transcribed, and the resulting cDNA was amplified by PCR.
Transcript levels were quantified by qRT-PCR. siRNAs targeting Zip8 and Mtf1 were obtained from Dharmacon and transfected using Lipofectamine 2000. Non-targeting (scrambled) siRNA was used as a negative control. Chondrocytes were transfected by incubating for 6 hours with siRNA and Lipofectamine 2000 (Invitrogen), and infected with adenoviruses as described above. Therapeutic antibodies for obstruction of ZIP8 function were purchased from Santa Cruz Biotechnology and MyBioSource Company, and treated in chondrocytes for 24 hours.
Total cell lysates were prepared in lysis buffer (150 mM NaCl, 1% NP-40, 50 mM Tris, 5 mM NaF) and used to detect cellular proteins (ZIP8, MTF1, and ERK). Secreted proteins (MMP3, MMP13, and ADAMTS5) were detected after trichloroacetic acid (TCA) precipitation from 900 μl of serum-free conditioned medium. All lysis buffers contained a cocktail of protease inhibitors and phosphatase inhibitors (Roche).

MTF1 = target: T1, MTF1 (Mus musculus, UniProt Q07243); assay: MTF1 activity reporter gene assay and immunostaining in chondrocytes; type: cell-based
T1 construct: endogenous in cells; host or cells: primary mouse articular chondrocytes
T1 sequence (Q07243 whole entry): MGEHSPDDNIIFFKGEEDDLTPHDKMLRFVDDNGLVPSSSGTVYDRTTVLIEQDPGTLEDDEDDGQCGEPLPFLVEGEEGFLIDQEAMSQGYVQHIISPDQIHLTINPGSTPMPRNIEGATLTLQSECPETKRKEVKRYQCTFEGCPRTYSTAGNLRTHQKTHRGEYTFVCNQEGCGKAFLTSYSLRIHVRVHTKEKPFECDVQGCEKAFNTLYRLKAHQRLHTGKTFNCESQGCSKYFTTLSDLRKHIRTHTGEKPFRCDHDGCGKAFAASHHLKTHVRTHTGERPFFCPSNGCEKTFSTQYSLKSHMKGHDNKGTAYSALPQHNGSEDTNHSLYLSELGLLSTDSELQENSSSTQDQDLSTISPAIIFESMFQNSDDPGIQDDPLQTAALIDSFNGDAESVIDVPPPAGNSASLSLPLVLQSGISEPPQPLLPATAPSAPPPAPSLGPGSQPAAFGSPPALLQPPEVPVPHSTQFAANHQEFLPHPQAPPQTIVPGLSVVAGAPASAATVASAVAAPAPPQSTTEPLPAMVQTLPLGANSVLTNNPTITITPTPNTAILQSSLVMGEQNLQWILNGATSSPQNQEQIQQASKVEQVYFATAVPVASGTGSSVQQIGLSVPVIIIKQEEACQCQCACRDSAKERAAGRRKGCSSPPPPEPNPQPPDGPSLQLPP
Protocol: The MTF1 reporter gene assay kit was obtained from SABiosciences. Chondrocytes were transfected for 6 hours with a metal response element (MRE) reporter construct and a constitutive Renilla luciferase construct using Lipofectamine 2000 (Invitrogen). Transfected cells were infected with Ad-Mtf1 or Ad-Zip8 for 2 hours or treated with metal ions. Cells were harvested 24 hours after treatment, and firefly luciferase and Renilla luciferase activities were measured using a Dual Luciferase Assay System (Promega). […] MTF1 was detected by immunofluorescence microscopy. Images were acquired using a fluorescence microscope, and at least 200 cells were examined in multiple fields per condition to quantify the percentage of nuclear MTF1-positive cells.

DMM-operated mice = assay: DMM surgery-induced OA with Zn^2+ diets or intraperitoneal ZnCl2; type: in vivo, mouse; conditions: intraperitoneal, 5 mg/kg body weight twice a week, 6 weeks after surgery
Protocol: FIG. 6m represents that knee joint sections were prepared from sham- and DMM-operated mice that were fed low-Zn^2+ (<0.5 mg zinc/kg), adequate-Zn^2+ (30 mg zinc/kg), or high-Zn^2+ (300 mg zinc/kg) diets. Cartilage destruction was determined by safranin-O/hematoxylin staining and quantified (n=10).
FIG. 6n represents that sham- and DMM-operated mice were intraperitoneally injected with PBS or ZnCl2 (5 mg/kg body weight) twice a week until they are sacrificed 6 weeks after surgery. Knee joint sections were stained with safranin-O/hematoxylin and cartilage destruction was determined (n=10). […]
Human OA cartilage was frozen, sectioned at 10-μm thickness, and fixed in paraformaldehyde. Sulfate proteoglycan was detected with alcian blue staining. Human ZIP8 was detected by immunostaining. […] Sections were deparaffinized in xylene, hydrated with graded ethanol, and stained with safranin-O. Cartilage destruction was scored by two blinded observers using the OARSI grading system (Glasson et al., 2010). Synovitis was determined by safranin-O and hematoxylin staining, and synovial inflammation (grade 0-3) was scored as described previously (Yang et al., 2010). Osteophyte development was identified by safranin-O staining, and osteophyte maturity was quantified as described previously (Oh et al., 2012). […]

Mt1 and Mt2 = assay: mRNA and protein levels of MT1 and MT2 in chondrocytes; type: cell-based, mouse; conditions: primary cultured chondrocytes
Source text: as §1

[2] = Ad-Zip8 chondrocytes, TPEN 1 μM pre-incubated with 1 μM metal ion

## [Cl-].[Cl-].[Zn+2] [ZnCl2]
[1]; [2]
  inhibitory effects of TPEN on the ZIP8-mediated expression of matrix-degrading enzymes, effect of pre-incubation of TPEN with the metal salt: effectively abolished
[1]; chondrocytes, metal salts 100 μM (CdCl2 1 μM)
  expression of matrix-degrading enzymes caused by the substance itself: up-regulated
MTF1; [2]
  inhibitory effects of TPEN on MTF1 transcriptional activity, effect of pre-incubation of TPEN with the metal salt: abolished
MTF1; chondrocytes
  nuclear localization of MTF1: most effective
MTF1; chondrocytes, reporter gene assay
  MTF1 transcriptional activity, effect of the substance itself: most effective
DMM-operated mice
  DMM-induced cartilage destruction: augmented
Mt1 and Mt2
  expression of Mt1 and Mt2: significantly increased
